# Reference: PubChem BioAssay (NCI)
# Several values for one entry are separate records, joined by “and”; a condition that tells them apart may be missing. Identical values can stand only once.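 Protocol summary: plate cells (96-well), add compound at 5 concentrations, incubate 48 h, interpolate endpoints linearly. The concentration for 50% growth inhibition is given as GI50. Definition used: TGI = concentration required for complete inhibition of growth.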 Activity calls are given as the source filed them. Cut-off read from the data, not from the text of the source: active = GI50 below about 0.43 µM; inactive = the rest. Where a SMILES comes first, the peptide text is derived from it. [ ]: non-standard residue; d: D form. The star is where a group is joined. ξ: configuration not given here. NMeN = CN[C@@H](CC(N)=O)C(=O)O; NMeV = CN[C@H](C(=O)O)C(C)C; ξNMeV = CNC(C(=O)O)C(C)C; Boc = CC(C)(C)OC(=O)*; ξNMeA = CNC(C)C(=O)O
# Assays:
# Experiment in all cases: growth of human tumour cells (NCI), 48 h
# DMS 114 small cell lung = system: DMS 114 small cell lung
# XF 498 CNS = system: XF 498 CNS
# KM20L2 colon = system: KM20L2 colon
# MDA-MB-435 = system: MDA-MB-435
# MCF7 breast = system: MCF7 breast
# HS 578T breast = system: HS 578T breast
# MDA-N = system: MDA-N
# BT-549 breast = system: BT-549 breast
# MDA-MB-231 breast = system: MDA-MB-231 breast
SMILES,TGI (DMS 114 small cell lung),TGI (XF 498 CNS) [µM],TGI (KM20L2 colon) [µM],other results
O=C1c2ccccc2C2(O)NC(=S)N(c3ccccc3)C12O (stereo not given),> 100 µM,> 100,> 100,–
c1ccc2c(c1)-c1ccccc1C2N1CC2CCC(CC2)C1,–,–,–,TGI (MDA-MB-435): 73.4 µM; TGI (MCF7 breast): 32.7 µM; TGI (HS 578T breast): 33.2 µM; TGI (MDA-N): > 100 µM; TGI (BT-549 breast): 47.9 µM; TGI (MDA-MB-231 breast): 37.4 µM
CCC[CH2][Sn]([CH2]CCC)([O]C(=O)C(N)CSC)[O]C(=O)C(N)CSC (stereo not given),12.8 µM,19,53.4,GI50 (DMS 114 small cell lung): 2.72 µM; GI50 (XF 498 CNS): 5.54 µM; GI50 (KM20L2 colon): 18.6 µM
CN1CCCCCC(=N\O)/C(=N/O)CCCCC1,–,–,–,TGI (MDA-MB-435): > 100 µM; TGI (MCF7 breast): > 100 µM; TGI (HS 578T breast): > 100 µM; TGI (MDA-N): > 100 µM; TGI (BT-549 breast): > 100 µM; TGI (MDA-MB-231 breast): > 100 µM
CC(=O)/C(=C\C1=CCCO1)C(=O)Nc1ccccc1C,> 100 µM,> 100,–,–
NC(=S)N/N=C(\C(=O)Nc1cccc([N+](=O)[O-])c1)c1nc2ccc([N+](=O)[O-])cc2[nH]c1=O,> 100 µM,> 100,> 100,–
CCCCCCCCCCC(O)C1CCC(C(O)CCC(O)C2CCC(CCCCCCC[C@H](O)CC3=C[C@@H](C)OC3=O)O2)O1 (stereo not given in full),–,> 100,> 100,TGI (BT-549 breast): 2.26 µM
O=c1ccnc2c1ccc1[nH]cccc12,> 100 µM,–,> 100,–
COc1cc(C=Nc2ccc(C(C)C)cc2)cc(OC)c1OC,> 100 µM,> 100,> 100,–
COc1ccc2cc3[n+](cc2c1OC)CCc1cc(O)c(O)cc1-3,> 100 µM,> 100,> 100,–
CSc1nc(NC(=O)O)c(N(C(C)=O)C(=O)O)c(=O)n1C,> 100 µM,> 100,> 100,–
COc1ccc(C(=O)OC2C=COC(C)C2OC(=O)c2ccc(OC)cc2)cc1 (stereo not given),37.1 µM,> 61.8,> 77.1,–
COc1cc(C(=O)C/C(CCC(=O)Nc2ccc(Cl)cc2C)=N/NC(=O)C(N)=O)ccc1O,> 100 µM,> 100,> 100,–
O=C1c2cc([N+](=O)[O-])ccc2-c2cccc(F)c21,–,–,–,TGI (MDA-MB-435): > 100 µM; TGI (MCF7 breast): > 100 µM; TGI (HS 578T breast): > 100 µM; TGI (MDA-N): > 100 µM; TGI (BT-549 breast): > 100 µM; TGI (MDA-MB-231 breast): > 100 µM
CCOC(=O)NC(=O)c1cn(CCCOC(=O)CCCCCCCCCCC(=O)OCCCn2cc(C(=O)NC(=O)OCC)c(=O)n(C)c2=O)c(=O)n(C)c1=O,> 100 µM,> 100,–,–
COC(=O)C12CC3CC(C1)CC(C(=O)OC)(C3)C2,> 100 µM,> 100,> 100,–
CN(C)CC/C(=N\Nc1ccccc1)c1ccccc1,> 100 µM,23.4,–,–
COC(=O)C(=O)C(C#N)c1ccc(CC#N)cc1 (stereo not given),–,> 100,> 100,–
CCCN1CN(C(C(=O)N[C@@H]2C(=O)N3C(C(=O)O)=C(C)CSC23)c2ccc(O)cc2)CSC1=S (stereo not given in full),> 100 µM,> 100,> 100,–
Nc1nc(=S)[nH]c(C(=O)Nc2ccc(Cl)c(Cl)c2)c1-c1ccc(Cl)cc1,> 100 µM,> 100,> 100,–
C=C1C(=O)[C@@]23CC1C(O)[C@@H](OC(C)=O)[C@@H]2C1(C)C(OC(C)=O)C[C@@H](OC(C)=O)C(C)(C)[C@@H]1C[C@H]3OC(C)=O (stereo not given in full),4.6 µg/mL,–,–,GI50 (MDA-MB-435): 2.88 µg/mL; TGI (MDA-MB-435): 9.51 µg/mL; GI50 (DMS 114 small cell lung): 2.08 µg/mL; GI50 (MCF7 breast): 6.33 µg/mL; TGI (MCF7 breast): 6.7 µM and 19.1 µg/mL; GI50 (HS 578T breast): 2 µg/mL; TGI (HS 578T breast): > 10 µM and 5.83 µg/mL; GI50 (MDA-N): 2.28 µg/mL; TGI (MDA-N): > 10 µM and 5.3 µg/mL; GI50 (BT-549 breast): 1.87 µg/mL; TGI (BT-549 breast): 3.04 µM and 3.31 µg/mL; GI50 (MDA-MB-231 breast): 2.38 µg/mL; TGI (MDA-MB-231 breast): 7.49 µg/mL; outcome (KM20L2 colon): inactive
COC(=O)C(C)N(C)C(=O)[C@H](CC(N)=O)N(C)C(=O)[C@@H]1CCCN1C(=O)[C@H](C(C)C)N(C)C(=O)C(C(C)C)N(C)C(=O)[C@@H](NC(=O)OC(C)(C)C)C(C)C (stereo not given in full) (Boc-V[ξNMeV][NMeV]P[NMeN][ξNMeA]-OMe),–,> 100,> 100,TGI (MDA-MB-435): > 50 µM; TGI (MCF7 breast): > 50 µM; TGI (MDA-N): > 50 µM; TGI (BT-549 breast): > 50 µM; TGI (MDA-MB-231 breast): > 50 µM
CCCC(C)C[C@@H](C)CC(C)/C=C(\C)c1oc(=O)c(C)c(O)c1C (stereo not given in full) (tested in a mixture with another compound),32.2 µM,–,25.7,–
CCN(CC)CCNC(=O)c1nn(C)c(=S)[nH]c1=S,> 100 µM,> 100,> 100,–

SMILES,TGI (DMS 114 small cell lung),TGI (XF 498 CNS) [µM],TGI (KM20L2 colon) [µM],other results
C1CCN(C2OC3C(COC3N3CCCCC3)OC2OC2CCO[C@@H]2N2CCCCC2)CC1 (stereo not given in full),54.7 µM,37.3,> 100,–
CC/C(=C(/CC)c1ccc(O)cc1)c1ccc([O-])cc1.CC/C(=C(/CC)c1ccc(O)cc1)c1ccc([O-])cc1.O=C([CH-]C(=O)c1ccccc1)c1ccccc1.O=C([CH-]C(=O)c1ccccc1)c1ccccc1.[Ti+4],–,–,41.3,GI50 (KM20L2 colon): 19.3 µM
O=C(O)CC12C3C4C5C3C1C5C42 (stereo not given),> 100 µM,> 100,> 100,–
COC(=O)C12C3C4C5C3(C#N)C1C5(C(=O)OC)C42C(=O)N(C(C)C)C(C)C (stereo not given),> 100 µM,> 100,> 100,–
CCOC(=O)C1=C(Nc2ccc(Cl)cc2Cl)OC/C1=N\NS(=O)(=O)c1ccc(C)cc1,> 100 µM,–,> 100,–
COC1OC(C)C(O)CC1OS(=O)(=O)c1ccc(C)cc1 (stereo not given),> 100 µM,–,> 100,–
CCCCc1ccc(-n2c3nc(=O)n(C)c(=O)c-3nc3ccccc32)cc1,18.5 µM,32.4,14.4,–
NC1CCCCC1N.O=S(=O)([O-])CCCN1CCOCC1.O=S(=O)([O-])CCCN1CCOCC1.[Pt+4],–,–,> 100,GI50 (KM20L2 colon): 5.48 µM
Cc1ccc(NC(=O)CC(=O)n2nc(-c3ccccc3)c(N=Nc3ccccc3Cl)c2-c2ccccc2)cc1,> 100 µM,> 100,> 100,GI50 (DMS 114 small cell lung): > 100 µM; GI50 (KM20L2 colon): > 100 µM
CC[O-].CC[O-].O=C1C(c2ccccc2)=C([O-])c2ccccc21.O=C1C(c2ccccc2)=C([O-])c2ccccc21.[Ti+4],> 100 µM,–,> 100,GI50 (DMS 114 small cell lung): > 100 µM; GI50 (KM20L2 colon): > 100 µM
COc1cc(C(c2cc3c(cc2O)OCO3)N2CCCCC2)cc(OC)c1OC (stereo not given),–,–,–,TGI (MDA-MB-435): 16.8 µM; TGI (MCF7 breast): 29.3 µM; TGI (HS 578T breast): 43.5 µM; TGI (MDA-N): 19.8 µM; TGI (BT-549 breast): 24.4 µM; TGI (MDA-MB-231 breast): 29.3 µM
Cc1ccc(NC(=O)CCC/C(CC(=O)c2ccc(Br)cc2)=N/NC(=O)CC#N)cc1,> 100 µM,–,> 100,–
C[C@]12CC[C@H](OCCC#N)CC1=CC[C@@H]1C2CC[C@]2(C)/C(=N/OCCC#N)CCC12 (stereo not given in full),> 100 µM,48.9,> 100,–
O=C(Nc1ccc(F)cc1)C(=O)C(C1OC(=O)c2ccccc21)[N+](=O)[O-] (stereo not given),> 100 µM,> 100,> 100,–
Cc1nc2cc(N)c(F)cc2[nH]1,> 100 µM,> 100,–,–
Cc1ccc(/C=C/C(=O)c2sc(-c3cccnc3)nc2C)cc1,–,–,> 100,–
CC1(C)CCC[C@@]2(C)C1CC[C@H]1CC(O)C3(C)CCC12C3 (stereo not given in full),31.2 µM,31.7,33,–
Nc1ncn(C2C=C(CO)C(O)C2O)c(=O)n1 (stereo not given),–,–,> 100,–
O=C([CH-]C(=O)c1ccccc1)c1ccccc1.O=C([CH-]C(=O)c1ccccc1)c1ccccc1.O=C([CH-]C(=O)c1ccccc1)c1ccccc1.[OH3+].[Y+3],–,–,–,GI50 (KM20L2 colon): 5.92 µM
O=c1[nH]c2c3ccccc3ccc2c2cc3c(cc12)OCO3,–,> 100,> 100,–
Cc1cc(C)nc(NS(=O)(=O)c2ccc(Nc3c4ccc(Cl)cc4nc4c(C(=O)Nc5ccc(S(=O)(=O)N=C(N)N)cc5)cccc34)cc2)n1,> 100 µM,> 100,> 100,–
CC(=O)N/C(=C\c1cccc([N+](=O)[O-])c1)c1nc2c3c(ccc2[nH]1)C(=O)c1ccccc1C3=O,> 100 µM,> 100,> 100,–
Cc1cc2cc3c(C)cc(=O)oc3c(C)c2o1,–,–,–,TGI (MDA-MB-435): > 100 µM; TGI (MCF7 breast): > 100 µM; TGI (HS 578T breast): > 100 µM; TGI (MDA-N): > 100 µM; TGI (BT-549 breast): > 100 µM; TGI (MDA-MB-231 breast): > 100 µM
COc1ccc2c(c1)CCc1[nH]c3ccccc3c1CCCC2,–,–,–,TGI (MDA-MB-435): > 10 µM; TGI (MCF7 breast): > 10 µM; TGI (HS 578T breast): > 10 µM; TGI (MDA-N): > 10 µM; TGI (BT-549 breast): > 10 µM; TGI (MDA-MB-231 breast): > 10 µM
